Results from PMC11213934, “Allosteric modulators of M1 muscarinic receptors enhance acetylcholine efficacy and decrease locomotor activity and turning behaviors in zebrafish” (Scientific Reports, 2024).
Entries after “also recorded” stand apart in the source; their conditions may differ. Read-outs that look alike come from different tables or passages of the source. Marks after values point to notes of the source that are not given here.

Experiments:
[1] = biological target: T1, human M1 muscarinic receptors (Homo sapiens, UniProt P11229); assay: [3H]-arachidonic acid release in CHO cells expressing M1 receptors, with and without ACh (single modulator concentration, four-parameter curves); format: cell-based; set-up: expressed in transfected cells; host or cells: CHO cells stably transfected with hM1, obtained from Mark Brann's laboratory (NIH); conditions: for 0.1 µM ACh: response with modulator present divided by response to ACh alone / 100 µM ACh: response with modulator present divided by response to ACh alone / No ACh: agonist effect of the allosteric ligand by itself, fraction of the maximal response that could be elicited by ACh: modulator 10 µM, CHO-hM1, mean ± s.e.m.; for No ACh: agonist effect of the allosteric ligand by itself, fraction of the maximal response that could be elicited by ACh: at least 4 determinations
T1 sequence (P11229 1-460): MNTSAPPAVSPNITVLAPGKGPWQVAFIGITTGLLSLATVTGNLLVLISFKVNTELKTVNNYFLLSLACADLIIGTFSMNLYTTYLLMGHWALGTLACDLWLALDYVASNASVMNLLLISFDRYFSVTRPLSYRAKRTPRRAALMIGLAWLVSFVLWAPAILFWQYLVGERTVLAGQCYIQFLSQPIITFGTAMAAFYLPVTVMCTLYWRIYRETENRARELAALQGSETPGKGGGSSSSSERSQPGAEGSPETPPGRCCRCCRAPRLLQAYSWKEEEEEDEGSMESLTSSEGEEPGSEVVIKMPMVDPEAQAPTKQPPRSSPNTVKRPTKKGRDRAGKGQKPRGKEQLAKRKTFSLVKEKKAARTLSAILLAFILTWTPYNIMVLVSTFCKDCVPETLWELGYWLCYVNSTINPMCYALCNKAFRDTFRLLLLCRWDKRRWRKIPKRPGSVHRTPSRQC
Experimental: CHO cells expressing human M1 muscarinic receptors were cultured at 37 °C in a 5% CO2 atmosphere in F12 medium supplemented with 5% fetal bovine serum, 100 units/ml penicillin, and 100 µg/ml streptomycin. These cells were obtained from Mark Brann’s laboratory when they were at NIH and have been in use by us and others for many years.
Measurement of [^3H]AA release was performed as described in Stahl and Ellis[24]. Stably transfected CHO-hM1 cells were seeded on 24-well plates (Greiner Bio-One GmbH, Frickenhausen, Germany) at a density of 5.0 × 10^4 cells/well in 0.5 ml of F-12 medium. Cells were incubated until they attached (approximately 3 h), followed by the addition of [^3H]AA to a final concentration of 0.05 μCi of [^3H]AA per well. The cells were then grown for 16 to 20 h before the assay was performed. [^3H]AA release was measured in Eagle’s basal medium with 20 mM HEPES and 2 mg/ml fatty acid-free bovine serum albumin (EM-BSA). Cells were rinsed twice with EM-BSA, followed by the addition of EM-BSA media containing experimental agents and incubated for 1 h at 37 °C. The assay was terminated by aspiration of the media, and the amount of [^3H]AA released was determined by liquid scintillation counting (Beckman-Coulter LS6500).
Where indicated (Fig. 2), cells were pretreated with POB to reduce the number of available receptors per cell. Stock POB was made up at 10 mM in ethanol and stored at −20C. Each well was pretreated with 0.5 ml of the appropriate concentration in PBS with 1 mM CaCl2 and 1 mM MgCl2 (PBS+ +) for 30 min at 37 °C, followed by 5 washes with PBS+ + . After pretreatment, the normal protocol follows as above.
Tabulated [^3H]AA release data are represented as a fraction of maximal release elicited by ACh or as the fraction of release elicited by the relevant concentration of ACh alone, as indicated. Dose-response curves were normalized to the maximal response of ACh without allosteric ligand. Where indicated, response curves were analyzed using the empirical four-parameter equation: Y=Top+Bottom-Top/1+X/C50^n where X is the concentration of the ligand used, Y is the amount of response, C50 is the concentration of the ligand that produces 50% of the maximal effect, Top and Bottom are the top and bottom plateaus of the curve, and n is related to the Hill slope for the curve. Where indicated, families of response curves were analyzed according to an allosteric operational model[50],[51]: Y=EM[τAA(KB+αβB)+τBBKA]/[τAA(KB+αβB)+τBBKA+AKB+KAKB+KAB+αAB] where EM is the maximal response; A is the concentration of ACh; B is the concentration of the allosteric ligand; τA and τB represent the operational efficacies of A and B, respectively; KA and KB are the equilibrium dissociation constants of A and B; and α and β represent the cooperativities between A and B in terms of binding and activation, respectively. Curve-fitting was carried out with GraphPad Prism, version 5.0 or 6.0 (San Diego CA).

[2] = tested on: wild-type (AB) zebrafish (Danio rerio); format: in vivo; conditions: compound at 10 µM relative to controls; mean ± s.e.m., N = 12
[3] = tested on: wild-type (AB) zebrafish (Danio rerio); assay: animal or person; format: in vivo; conditions: for MEC: locomotor behaviors
Experimental: (§1) Larval zebrafish were produced in the University of Toledo zebrafish core facility and housed in an incubator maintained at 28 °C on a 14:10 h cycle. Fish were acclimated to the testing room conditions the evening prior to testing. All testing took place during the 14 h light cycle after the lights had been on for at least 2 h.
The movement of larval zebrafish was monitored with the Noldus behavior recording system (Noldus Information Technology, Leesburg VA) and quantified using EthoVision® XT 15 software (Noldus Information Technology, Leesburg VA). Five-dpf zebrafish larvae were exposed to a range of nonlethal concentrations of compounds in a 24-well plate with appropriate controls. The plate was immediately placed in the incubator for a 30-min exposure period. After 30 min, the plate was transferred to the Noldus system and swimming behavior was recorded in 100% light for 30 min to measure spontaneous swimming behavior. The light was switched off for 10 min (dark period) and then switched on for 10 min (light period), which was then repeated for two additional cycles. In total, the larvae were exposed to three cycles of alternating 10 min dark and light periods (100% darkness-to-100% light). Each drug challenge was conducted on three separate plates with n = 6 larvae/dose/plate.
Absolute turn angle (TA) and angular velocity provided measures of the extent of turning behavior, while the intra-individual variance of turn angle quantified how consistently (low variance) or inconsistently (high variance) fish turned. A lowered intra-individual variance of turning reflected repeatedly performing the same turning behavior, a stereotypy.
All data for exposure and the behavioral end points were analyzed by one-way ANOVA (factor: drug concentration) followed by a Dunnett’s multiple comparisons test for post hoc significance between drug concentration and control group. Statistically significant differences are noted as follows; *p < 0.05; **p < 0.01; ***p < 0.001.

[4] = tested on: wild-type (AB) zebrafish (Danio rerio); assay: Maximum tolerated concentration (MTC) determination in larval zebrafish; format: in vivo; conditions: for MTC (maximum tolerated concentration): after 24 h exposure, 5 dpf larvae
Experimental: as §1
Determination of maximum tolerated concentration (adapted from Berghmans)[52] was completed by placing 5 days post fertilization (dpf) wild-type zebrafish larvae in a 24 well plate at 6 fish per well, and one compound concentration per well. […] Death was determined by the absence of heartbeat. Additional endpoints were used to assess toxicity at non-lethal concentrations such as startle capacity (poke stimulus), abnormalities in swimming behavior (loss of dorsoventral balance), and gross morphological deformities (bent body). […] The MTC determination was used to select three doses of each compound (low, medium, high dose) to be used in behavioral assays.

[5] = compound at 10 µM relative to controls, mean ± s.e.m., N = 12
[6] = modulators at 10 µM (amiodarone 30 µM)

| Compound | Variance turn angle [3, 5] | MEC [3] | MTC (maximum tolerated concentration) [4] | 0.1 µM ACh: response with modulator present divided by response to ACh alone [1] | 100 µM ACh: response with modulator present divided by response to ACh alone [1] | No ACh: agonist effect of the allosteric ligand by itself, fraction of the maximal response that could be elicited by ACh [1] | Effect on M1 receptor activity and ACh response, in words [1, 6] | other results |
| --- | --- | --- | --- | --- | --- | --- | --- | --- |
| CC(COc1ccccc1)N(CCCl)Cc1ccccc1 (stereo not drawn) [POB, phenoxybenzamine, reference compound] | – | – | – | – | – | – | – | Reduction of receptor number ([1]; pretreatment of cells with 0.3 µM POB): 90% |
| VU0238408 [reference compound] | 146.6 ± 12.4*** % | 1 µM | 30 µM | – | – | – | – | Angular velocity [2]: 180.1 ± 20.3 %; Therap. index [3]: 30; Distance moved [3, 5]: 34.6 ± 4.0*** % |
| CCCCc1oc2ccccc2c1C(=O)c1cc(I)c(OCC[N+](CC)(CC)CC)c(I)c1 [Compound 2, N-ethyl amiodarone, reference compound] | – | > 1 µM | 1 µM | 0.13 ± 0.04 | 0.50 ± 0.03 | 0.04 ± 0.02 | NAM of mAChR potency and efficacy | – |
| CCCCc1oc2ccccc2c1C(=O)c1cc(I)c(OCCNCC)c(I)c1.Cl [Compound 1, (2-butylbenzofuran-3-yl)(4-(2-(ethylamino)ethoxy)-3,5-diiodophenyl)methanone hydrochloride] | – | 3 µM | 3 µM | 1.01 ± 0.11 | 0.83 ± 0.09 | 0.18 ± 0.03 | suppressed the maximal ACh response | Therap. index [3]: 1 |
| CCCCc1oc2ccccc2c1C(=O)c1ccc(O)cc1 [Compound 4, reference compound] | – | > 0.3 µM | 0.3 µM | 0.62 ± 0.07 | 0.81 ± 0.06 | 0.04 ± 0.01 | suppressed the maximal ACh response | – |
| COc1cccc(CN2C(=O)C(=O)c3ccccc32)c1 [Compound 8j, 1-(3-methoxybenzyl)indoline-2,3-dione] | – | – | – | 1.09 ± 0.31 | 0.96 ± 0.01 | 0.02 ± 0.02 | – | – |
| CCCCc1oc2ccccc2c1C(=O)c1cc(I)c(O)c(I)c1 [Compound 3, reference compound] | – | > 3 µM | 3 µM | 0.63 ± 0.10 | 0.90 ± 0.07 | 0.04 ± 0.01 | suppressed the maximal ACh response | – |
| COc1ccc(Cn2cc(C(=O)O)c(=O)c3ccccc32)cc1 [BQCA, reference compound] | 119.6 ± 7.0* % | – | – | – | – | 0.02 ± 0.00 | – | Effect on locomotor activity and turning behaviors, in words ([3]; 30 min spontaneous swimming period): decreased overall locomotor activity; also recorded: increased angular velocity; response vs control in vivo at 10 µM ([3]; Danio rerio, read-out: Distance moved): 72 ± 10%; MEC ([3]; abbreviation not defined in the paper): 3 µM; Angular velocity [3, 5]: 141.8 ± 14.9* %; Effect on M1 receptor activity and ACh response, in words [1]: enhanced potency without appreciable effect on maximal response |
| CCCCc1oc2ccccc2c1C(=O)c1cc(I)c(OCCN(CC)CC)c(I)c1 [Amiodarone, reference compound] | 102.2 ± 10.4% | > 10 µM | 10 µM | – | – | – | – | Angular velocity [2]: 83.2 ± 12.0%; Distance moved [3, 5]: 85.7 ± 10.2%; Concentration that produced death ([4]; 24 h exposure): 100 µM |
| O=C1C(=O)N(Cc2ccc(Br)cc2)c2ccccc21 [VU0119498, reference compound] | – | – | – | 1.28 ± 0.12 | 1.03 ± 0.05 | 0.06 ± 0.01 | – | – |
